Data taken from PubChem BioAssay (NCI).
“And” between values parts separate entries of the source, which are not always exact repeats. Equal values may be shown once.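 Dose response: 5 concentrations. Exposure: 48 h. Format: 96-well plates. Endpoint: linear interpolation; highest concentration if not reached. At the GI50, growth is halved. At the TGI there is no net growth.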

Legend:
Assay in all cases: NCI-60 cell line screen, 48 h
[1] = test system: M14 melanoma
[2] = test system: OVCAR-3 ovarian
[3] = test system: OVCAR-5 ovarian
[4] = test system: MDA-MB-435
[5] = test system: BT-549 breast
[6] = test system: MCF7 breast
[7] = test system: MDA-MB-231 breast
[8] = test system: RXF 393 renal
[9] = test system: IGROV1 ovarian
[10] = test system: SF-268 CNS
[11] = test system: HCC-2998 colon
[12] = test system: SW-620 colon
[13] = test system: NCI-H226 lung
[14] = test system: U251 CNS
[15] = test system: SK-MEL-2 melanoma
[16] = test system: PC-3 prostate
[17] = test system: MALME-3M melanoma
[18] = test system: MOLT-4 leukemia
[19] = test system: HCT-116 colon
[20] = test system: SR leukemia
[21] = test system: NCI/ADR-RES ovarian
[22] = test system: SF-295 CNS
[23] = test system: EKVX NSCLC
[24] = test system: UACC-62 melanoma
[25] = test system: OVCAR-8 ovarian
[26] = test system: HS 578T breast
[27] = test system: NCI-H460 lung
[28] = test system: HT29 colon
[29] = test system: HL-60(TB) leukemia
[30] = test system: 786-0 renal
[31] = test system: SNB-19 CNS
[32] = test system: SN12C renal
[33] = test system: DU-145 prostate
[34] = test system: HOP-62 NSCLC
[35] = test system: KM12 colon
[36] = test system: HCT-15 colon
[37] = test system: SK-MEL-28 melanoma
[38] = test system: T-47D breast
[39] = test system: SF-539 CNS
[40] = test system: SK-OV-3 ovarian
[41] = test system: A549 NSCLC
[42] = test system: K-562 leukemia
[43] = test system: TK-10 renal
[44] = test system: ACHN renal
[45] = test system: NCI-H23 lung
[46] = test system: UO-31 renal
[47] = test system: SK-MEL-5 melanoma
[48] = test system: A498 renal
[49] = test system: CCRF-CEM leukemia
[50] = test system: OVCAR-4 ovarian
[51] = test system: SNB-75 CNS
[52] = test system: NCI-H522 lung
[53] = test system: COLO 205 colon
[54] = test system: UACC-257 melanoma
[55] = test system: RPMI-8226 leukemia
[56] = test system: LOX IMVI melanoma
[57] = test system: HOP-92 NSCLC
[58] = test system: CAKI-1 renal

SMILES: CC1(C)C2CC(=O)C1(C)C(OCc1ccccc1)C2Br (configuration not stated)
- GI50 [1]: 23.4 µM and 54.8 µM
- TGI [1]: 57.9 µM and > 100 µM
- GI50 [2]: 19.3 µM and 53.4 µM
- TGI [2]: 37.1 µM and > 100 µM
- GI50 [3]: 32.2 µM and > 100 µM
- TGI [3]: > 100 µM
- TGI [4]: > 100 µM and 84.7 µM
- GI50 [5]: 26.6 µM and 54.3 µM
- TGI [5]: 67.4 µM and > 100 µM
- TGI [6]: > 100 µM
- GI50 [7]: 18.5 µM and > 100 µM
- TGI [7]: 42.9 µM and > 100 µM
- GI50 [8]: 20.6 µM and 82.7 µM
- TGI [8]: 46.8 µM and > 100 µM
- TGI [9]: > 100 µM
- TGI [10]: > 100 µM
- GI50 [11]: 27.7 µM and 98.6 µM
- TGI [11]: 69.3 µM and > 100 µM
- TGI [12]: 47 µM and > 100 µM
- GI50 [13]: 23.2 µM and > 100 µM
- TGI [13]: 56.1 µM and > 100 µM
- GI50 [14]: 22.4 µM and 51.7 µM
- TGI [14]: 44.6 µM and > 100 µM
- GI50 [15]: 13.1 µM and > 100 µM
- TGI [15]: 25.8 µM and > 100 µM
- TGI [16]: 47.8 µM and > 100 µM
- GI50 [17]: 19.1 µM and 48.6 µM
- TGI [17]: 36.9 µM and > 100 µM
- TGI [18]: 51.2 µM and 49.9 µM
- TGI [19]: 39.8 µM and > 100 µM
- TGI [20]: 52.8 µM and 66.1 µM
- TGI [21]: 42.1 µM and > 100 µM
- TGI [22]: 70.9 µM and > 100 µM
- TGI [23]: > 100 µM
- TGI [24]: > 100 µM
- GI50 [25]: 22.7 µM and 95.7 µM
- TGI [25]: 56.8 µM and > 100 µM
- GI50 [26]: 13.4 µM
- TGI [26]: 68.2 µM and 58.8 µM
- GI50 [27]: 20.2 µM and 48.5 µM
- TGI [27]: 43.5 µM and > 100 µM
- TGI [28]: 32.2 µM and 71.3 µM
- TGI [29]: 50.2 µM and 62.1 µM
- GI50 [30]: 46.5 µM and > 100 µM
- TGI [30]: > 100 µM
- GI50 [31]: 47.2 µM and > 100 µM
- TGI [31]: > 100 µM
- GI50 [32]: 24.2 µM and 82.1 µM
- TGI [32]: 52.9 µM and > 100 µM
- GI50 [33]: 29.7 µM and 86.8 µM
- TGI [33]: > 100 µM
- GI50 [34]: 16.3 µM and 54.3 µM
- TGI [34]: 33.9 µM and > 100 µM
- GI50 [35]: 31.4 µM and 63 µM
- TGI [35]: > 100 µM
- TGI [36]: 31.1 µM and > 100 µM
- GI50 [37]: 15.1 µM and > 100 µM
- TGI [37]: > 100 µM
- TGI [38]: 77.9 µM and > 100 µM
- GI50 [39]: 25.9 µM and > 100 µM
- TGI [39]: 68.4 µM and > 100 µM
- GI50 [40]: 41.5 µM and > 100 µM
- TGI [40]: > 100 µM
- TGI [41]: > 100 µM
- TGI [42]: > 100 µM
- TGI [43]: > 100 µM
- GI50 [44]: 38.5 µM and 93.9 µM
- TGI [44]: > 100 µM
- TGI [45]: 76.3 µM and > 100 µM
- GI50 [46]: 29.5 µM and 62 µM
- TGI [46]: 75.1 µM and > 100 µM
- TGI [47]: 29.3 µM and > 100 µM
- GI50 [48]: 24.8 µM and > 100 µM
- TGI [48]: 62.2 µM and > 100 µM
- TGI [49]: 49.1 µM and 56.1 µM

SMILES: O=C1c2ccc3c4c(ccc(c24)C(=O)N1CCCCO)C(=O)N(CCCCO)C3=O
- GI50 [2]: 0.408 µM
- TGI [2]: 2.31 µM
- GI50 [3]: 1.57 µM
- TGI [3]: 4.06 µM
- GI50 [4]: 1.46 µM
- TGI [4]: 2.86 µM
- GI50 [5]: 4.82 µM
- TGI [5]: 17.4 µM
- GI50 [6]: 1.43 µM
- TGI [6]: 3.84 µM
- GI50 [7]: 2.9 µM
- TGI [7]: 97.9 µM
- GI50 [8]: 2.08 µM
- TGI [8]: 10.7 µM
- GI50 [9]: 2.12 µM
- TGI [9]: 5.87 µM
- GI50 [10]: 2.09 µM
- TGI [10]: 11.5 µM
- GI50 [50]: 0.428 µM
- TGI [50]: 1.72 µM
- GI50 [11]: 1.91 µM
- TGI [11]: 10.5 µM
- GI50 [12]: 1.86 µM
- TGI [12]: 10.1 µM
- GI50 [13]: 3.45 µM
- TGI [13]: 15.5 µM
- GI50 [14]: 2.14 µM
- TGI [14]: 6.57 µM
- GI50 [15]: 1.84 µM
- TGI [15]: 6.88 µM
- GI50 [16]: 3.1 µM
- TGI [16]: 30.1 µM
- GI50 [17]: 0.254 µM
- TGI [17]: 1.02 µM
- GI50 [18]: 1.92 µM
- TGI [18]: 12.5 µM
- GI50 [19]: 1.22 µM
- TGI [19]: 6.16 µM
- GI50 [20]: 0.745 µM
- TGI [20]: 21.5 µM
- GI50 [21]: 2.33 µM
- TGI [21]: 11 µM
- GI50 [22]: 1.14 µM
- TGI [22]: 4.84 µM
- GI50 [24]: 0.726 µM
- TGI [24]: 2.28 µM
- GI50 [25]: 1.33 µM
- TGI [25]: 8.45 µM
- GI50 [26]: 5.14 µM
- TGI [26]: 24 µM
- GI50 [51]: 3.12 µM
- TGI [51]: 13.6 µM
- GI50 [27]: 1.12 µM
- TGI [27]: 4.75 µM
- GI50 [28]: 0.824 µM
- TGI [28]: 14.3 µM
- GI50 [29]: 2.07 µM
- TGI [29]: 7.43 µM
- GI50 [30]: 2.91 µM
- TGI [30]: 20.5 µM
- GI50 [31]: 2.34 µM
- TGI [31]: 10.5 µM
- GI50 [32]: 1.88 µM
- TGI [32]: 6.63 µM
- GI50 [33]: 2.2 µM
- TGI [33]: 6.32 µM
- GI50 [34]: 2.53 µM
- TGI [34]: 12.7 µM
- GI50 [35]: 2.27 µM
- TGI [35]: 10.7 µM
- GI50 [52]: 1.55 µM
- TGI [52]: 5.73 µM
- GI50 [53]: 0.888 µM
- TGI [53]: 2.5 µM
- GI50 [54]: 1.3 µM
- TGI [54]: 2.71 µM
- GI50 [36]: 1.55 µM
- TGI [36]: 10.5 µM
- GI50 [55]: 2.79 µM
- TGI [55]: 14.3 µM
- GI50 [37]: 2.6 µM
- TGI [37]: 10.4 µM
- GI50 [38]: 2.54 µM
- TGI [38]: 7.26 µM
- GI50 [39]: 1.45 µM
- TGI [39]: 3.87 µM
- GI50 [40]: 4.14 µM
- TGI [40]: 17.8 µM
- GI50 [41]: 1.93 µM
- TGI [41]: 6.65 µM
- GI50 [56]: 1.35 µM
- TGI [56]: 3.58 µM
- GI50 [42]: 2.54 µM
- TGI [42]: > 100 µM
- GI50 [43]: 5.29 µM
- TGI [43]: 32.5 µM
- GI50 [44]: 0.92 µM
- TGI [44]: 5.18 µM
- GI50 [45]: 1.6 µM
- TGI [45]: 5.17 µM
- GI50 [46]: 1.87 µM
- TGI [46]: 7.65 µM
- GI50 [57]: 3.51 µM
- TGI [57]: 7.98 µM
- GI50 [47]: 0.388 µM
- TGI [47]: 1.48 µM
- GI50 [48]: 1.12 µM
- TGI [48]: 2.87 µM
- GI50 [49]: 2.74 µM
- TGI [49]: > 100 µM
- GI50 [58]: 2.27 µM
- TGI [58]: 13.6 µM
